# Measured values reported in paper PMC7687371, “Quantitative in Vitro to in Vivo Extrapolation (QIVIVE) for Predicting Reduced Anogenital Distance Produced by Anti-Androgenic Pesticides in a Rodent Model for Male Reproductive Disorders” (Environmental Health Perspectives, 2020).
# Read-outs that look alike come from different tables or passages of the source. Marks after values point to notes of the source that are not given here.
# Key:
# [1] = PBK model first-order kinetic parameters fitted to in vivo ADME data; set-up: species or system rat; settings: PBK model parameter; for Metabolism rate in liver, Total (L/h) KMetab: metabolic clearance
# pregnant dams and pups = settings: cited from earlier work; for Critical toxicity / LOAEL (mg/kg bw) / NOAEL (mg/kg bw): ref EFSA's Draft Assessment Reports (DARs)
# [2] = set-up: method as in U.S. EPA 2012; settings: EPI Suite, experimental preferred over modeled; ref U.S. EPA 2012; cited from earlier work
# NCI-H295R cells = experiment: H295R steroidogenesis assay; type: cell-based, human; settings: for Effect on androgen (steroid) synthesis, in words: H295R steroidogenesis assay; for IC20: read-out: Testosterone inhibition (IC20 µM)
# Protocol: To capture effects on steroid hormone synthesis (testosterone and androstendione), we tested all 12 pesticides in the H295R assay with the human adrenocortical carcinoma cell line NCI-H295R (American Type Culture Collection no. CRL-2,128, LGC Standards), as previously described ([Hecker et al. 2011]; [Rosenmai et al. 2013]). In brief, cells were cultured in DMEM/F-12 +glutamine medium with HEPES buffer (Invitrogen) containing 1% insulin-transferrin-sodium selenite plus Premix (VWR) and 2.5% Nu-Serum (BD Bioscience) at 37°C in a 5% CO2 atmosphere. The day before exposure, cells were seeded 300,000 per well in clear 24-well plates (VWR Corning). Cells were exposed for 48 h to control (Forskolin: 1μM , 10μM (Sigma-Aldrich); and Prochloraz: 0.3μM , 3μM (VWR-Bie and Berntsen) or test compounds. The vehicle (DMSO) concentration was kept constant in all wells (0.1%). After 48 h, the exposure culture medium was removed and stored at –80°C until the levels of 10 steroid hormones (testosterone, androstenedione, aldosterone, corticosterone, cortisol, dehydroepiandrosterone, 17α-hydroxyprogesterone , progesterone, estrone, and 17β-estradiol ) were quantified using the high-performance liquid chromatography–tandem mass spectrometry method described elsewhere ([Mortensen and Pedersen 2007]). Minor modifications were made to accommodate a smaller sample size and to include more hormones. The liquid chromatography system (Agilent 1100) was equipped with an Atlantis C18 column ( 2.1×150mm , 3μm ) (Waters Corp.) maintained at 40°C. The sample injection volume was 50μL . […] The mass spectrometer was a Quattro Ultima triple quadrupole instrument (Waters Corp.). […] Each pesticide was tested in 2-fold serial dilutions at concentrations between 0.8 and 50μM in three independent experiments, and hormone levels were normalized to the solvent controls containing 0.1% DMSO. Cell viability was evaluated by using the 3-(4,5-dimethylthiazol-2-yl)-2,5- diphenyltetrazolium bromide (MTT) assay (Sigma) as previously described ([Hecker et al. 2011]; [Rosenmai et al. 2013]). Fluorescence was measured (excitation 560 nm , emission 590 nm ) using a Wallac Victor2 1420 multilabel counter (PerkinElmer).
# [3] = cited from earlier work
# [4] = Fetal chemical exposure analysis (LC-QTOF) at GD21; type: in vivo, rat; settings: male, Wistar, rat, in vivo, 60 mg/kg/day
# Protocol: Dams were decapitated under CO2 /oxygen anesthesia at GD21 and fetuses collected by cesarean section. Prior to decapitation of the fetuses, their BWs and AGDs were recorded. Blood from the dams was collected in heparinized vacutainer tubes, centrifuged at 125×g for 10 min at 4°C to prepare plasma, and, together with the amniotic fluid, frozen directly. Pooled trunk blood from all female and male fetuses of the same litter (female and male blood separately) was collected into heparin-treated capillary tubes approximately 90 min after dosing and the plasma was prepared and stored at −80°C until analysis for pesticides and selected metabolites by liquid chromatography quadrupole time-of-flight mass spectroscopy (LC-QTOF). Details about the LC-QTOF analyses are provided in “Method S1” in Supplemental Material. Amniotic fluid was collected from fetuses by pipetting, pooled within each litter, snap frozen in liquid nitrogen, and subsequently stored at −80 °C .
# Method S1. Chemical analysis of pesticide levels
# Acetonitrile, methanol, formic acid and 25% ammonium hydroxide, all of LC-MS grade and ethyl acetate were obtained from Sigma Aldrich, Schneldorf, Germany. Isolute bulk C-18 sorbent was obtained from Biotage, Sweden and was washed with acetonitrile and ethyl acetate and dried prior to use. Water was purified on a Milli Q system, Millipore Corporation, US.
# Pesticide standards were purchased from Dr. Ehrenstorfer (Augsburg, Germany), LGC-standards (Teddington, Middlesex, UK) and Sigma Aldrich (St. Louis, MO, USA). Acetonitrile used as solvents for the LC-QTOF was LiChrosolv Hypergrade. An ESI-L low concentration tuning mix from Agilent (Santa Clara, CA, USA) was used for tuning of the TOF. A reference solution was prepared containing Purine and HP0921 from Agilent (Santa Clara, CA, USA).
# Stock solutions of the pesticides were prepared at 1 mg/ml in acetonitrile, methanol or toluene.
# Standard mixtures containing the test compounds were prepared at a concentration of 10 µg/ml acetonitrile and used for preparation of calibration solutions. Isomers eluting very close to each other were avoided in these mixtures. […]
# added 200 µl of ice-cold acetonitrile in Eppendorf tubes. Internal standard was added in the form of 10 µl TPP (5 µg/ml) and the extraction was performed by whirl mixing. The tube was then stored on ice for 5 min and then centrifuged at 10,000 x g for 10 min at 4 °C (Ole Dich Instrument, Denmark). An aliquot of the supernatant was transferred to filter vials (0.45 µm) and analysed by […]
# Quality control samples were included in each analytical run. These were prepared using the same procedure as for the samples, though using amniotic fluid from untreated control Wistar rats extracted with acetonitrile containing three different levels of the relevant pesticide standards. The resulting spike levels were 0.04, 0.013 and 0.13 µg/ml. […]
# fluid or plasma from Sprague Dawley rats was transferred to an Eppendorf vial and added 150 µl of acetonitrile. 50 mg of isolute C-18 sorbent was added to the tube, which was shaken for 5 min, […]
# cooled to 4 °C and centrifuged at 10,000 x g for 10 min at 4 °C (Ole Dich Instrument makers, Denmark). 20 µl of the supernatant was transferred to an HPLC vial and mixed with 80 µl of 5%- 75% acetonitrile (this percentage was analyte dependent) prior to analysis by LC-MS.LC -QTOF […]
# Pesticide screening was carried out using a liquid chromatography-electrospray ionization-quadrupole-time of flight-mass spectrometer.
# The LC system was connected to a Bruker Daltonics, maXis qTOF mass spectrometer equipped with an electrospray ion source operated in positive ion mode (Bruker Daltonics, Bremen, Germany). The ion source settings were: nebulizer pressure 2 bars, drying gas flow 8 l/min, dry gas temperature 200 °C, capillary voltage 2500 V. The scan range was from 80 to 700 m/z with an acquisition rate of 2 Hz. Sodium formate dissolved in 50% 2-propanol was introduced in the ion […]
# Wistar rats [5] = settings: rat, in vivo
# Wistar rats [6] = experiment: In vivo Study 3 (fludioxonil, cyprodinil, dimethomorph), reproductive/developmental toxicity, AGD
Structure (SMILES),Fecal excretion rate from gut (L/h) KFeces [1] [L/h],Portal GI absorption rate into liver (L/h) KAS [1] [L/h],Urine excretion rate from kidney (L/h) KUrine [1] [L/h],"Metabolism rate in liver, Total (L/h) KMetab [1] [L/h]",Critical toxicity (pregnant dams and pups),LOAEL (mg/kg bw) (pregnant dams and pups),NOAEL (mg/kg bw) (pregnant dams and pups),log Kow [2],"Effect on androgen (steroid) synthesis, in words (NCI-H295R cells)","Estradiol, LOEC (NCI-H295R cells; multiple contrast tests) [µM]","Testosterone, lowest observed effect concentration (LOEC) (NCI-H295R cells; multiple contrast tests) [µM]","IC20 (NCI-H295R cells; Homo sapiens, NCI-H295R) [µM]","Androstendione, LOEC (NCI-H295R cells; multiple contrast tests) [µM]","Corticosterone, LOEC (NCI-H295R cells; multiple contrast tests) [µM]","Cortisol, LOEC (NCI-H295R cells; multiple contrast tests) [µM]",Unbound plasma fraction (%) ([3]; plasma),other results
"Oc1ccccc1-c1ccccc1 [o -Phenylphenol, o -phenylphenol]",0.1,1,0.01,0.2,"Maternal BW gain, bladder & kidney effect",140,40,3.09,inhibited testosterone synthesis,25,50,–,–,–,–,–,IC20 (NCI-H295R cells; NCI-H295R cells): 25 µM; Unbound plasma fraction (%) ([3]; ref Wetmore et al. (2012)): 4.1^g %
"CC1(C(=O)Nc2ccc(O)c(Cl)c2Cl)CCCCC1 [Fenhexamide, fenhexamid]",3,1,0.05,0.15,Reduced maternal body and organ weight,450,45,3.51,inhibited testosterone synthesis,12.5,6.3,5.2,12.5,3.1,3.1,5.7^g %,"DHEA, LOEC (NCI-H295R cells; multiple contrast tests): 12.5 µM; OH-Progesterone, LOEC (NCI-H295R cells; multiple contrast tests): 25 µM; Progesterone, LOEC (NCI-H295R cells; multiple contrast tests): 12.5 µM"
"Cc1cc(C)nc(Nc2ccccc2)n1 [Pyrimethanil, pyrimethanil]",0.1,1,0.01,0.8,Reduced maternal and pup BW,294,23,2.84,no effect on any measured androgen,–,–,> 50,–,–,–,2.0^g %,–
"Cc1cc(C2CC2)nc(Nc2ccccc2)n1 [Cyprodinil, cyprodinil]",1,1,0.2,0.01,Reduced maternal and pup BW,–,71,4.00,inhibited testosterone synthesis,6.3,6.3,0.4,6.3,25,25,–,"Measured concentration in male fetuses [4]: 6.6 µM; Biliary excretion rate (L/h) KBiliary [1]: 1.6 L/h; Maternal liver toxicity (pregnant dams and pups; 180 mg/kg per day, ref EFSA 2005): induce maternal liver toxicity; Shortening of AGDI compared with male controls (normalized AGDI scale) (Wistar rats [5]; male, Wistar (HanTac:WH)): around 10%; AGDI mean (Wistar rats [5]; male, Wistar, 20 mg/kg): 2.13; AGDI mean (Wistar rats [5]; male, Wistar, 60 mg/kg): 1.98; AGDI reduction (%) (Wistar rats [5]; male, Wistar, 60 mg/kg/day): 16%; AGDI mean (Wistar rats [5]; male, Wistar, 180 mg/kg): 2.09; Nipple retention at PD14, statistics in words (Wistar rats [5]): no statistically significant effects on nipple retention; IC50 (NCI-H295R cells; Homo sapiens, NCI-H295R, 48 h, read-out: Testosterone inhibition (IC50, μM)): 8.5 µM; % postnatal deaths (Wistar rats [6]; 20 mg/kg bw/day): 1.2 ± 3.7%; % postnatal deaths (Wistar rats [6]; 60 mg/kg bw/day): 0.0 ± 0.0%; % postnatal deaths (Wistar rats [6]; 180 mg/kg bw/day): 0.0 ± 0.0%"
